Reference: ChEMBL document CHEMBL1201862, “PubChem BioAssay data set” (2004)
Calls of active or inactive are those of the source.

Legend:
Cytochrome P450 3A4 = Cytochrome P450 3A4 (Homo sapiens, UniProt P08684);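 further: CYP3A4 tested as one member of a cytochrome P450 panel screen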
[1] = inhibitors of firefly luciferase expression or activity, dose response, H4 neuroglioma cells, luminescence (AID 1990); assay type: functional, cell-based
[2] = biological target: T1, RNA-binding protein pos-1 (Caenorhabditis elegans, UniProt G5EF15); test: inhibitors of POS-1/mex-3 RNA binding, dose response, biochemical, fluorescence polarization (AID 1964);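 further: purified POS-1 fused to maltose binding protein made in E. coli; potency of compounds blocking POS-1 binding to fluorescent RNA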
T1 sequence (G5EF15 whole entry): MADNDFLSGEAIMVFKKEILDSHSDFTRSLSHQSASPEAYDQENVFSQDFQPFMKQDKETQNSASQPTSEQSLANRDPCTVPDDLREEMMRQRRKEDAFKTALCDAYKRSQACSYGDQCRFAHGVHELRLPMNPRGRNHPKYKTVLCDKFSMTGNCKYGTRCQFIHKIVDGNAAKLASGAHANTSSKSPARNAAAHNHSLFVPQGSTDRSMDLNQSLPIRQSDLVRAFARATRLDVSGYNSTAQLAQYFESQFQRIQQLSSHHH

[3] = Luminescence Cell-Based Dose Response HTS to Identify Inhibitors of 5'UTR Stem-Loop Driven Prion Protein mRNA Translation in H4 Neuroglioblastoma Cells. [Related pubchem assays: 1827 (Project Summary), 1813 (Primary HTS)]; assay type: functional
[4] = biological target: T2, Zinc finger protein mex-5 (Caenorhabditis elegans, UniProt Q9XUB2); test: MEX-5/TCR-2 RNA interaction inhibitors, dose response, biochemical, C. elegans, fluorescence polarization (AID 1960)
T2 sequence (Q9XUB2 whole entry): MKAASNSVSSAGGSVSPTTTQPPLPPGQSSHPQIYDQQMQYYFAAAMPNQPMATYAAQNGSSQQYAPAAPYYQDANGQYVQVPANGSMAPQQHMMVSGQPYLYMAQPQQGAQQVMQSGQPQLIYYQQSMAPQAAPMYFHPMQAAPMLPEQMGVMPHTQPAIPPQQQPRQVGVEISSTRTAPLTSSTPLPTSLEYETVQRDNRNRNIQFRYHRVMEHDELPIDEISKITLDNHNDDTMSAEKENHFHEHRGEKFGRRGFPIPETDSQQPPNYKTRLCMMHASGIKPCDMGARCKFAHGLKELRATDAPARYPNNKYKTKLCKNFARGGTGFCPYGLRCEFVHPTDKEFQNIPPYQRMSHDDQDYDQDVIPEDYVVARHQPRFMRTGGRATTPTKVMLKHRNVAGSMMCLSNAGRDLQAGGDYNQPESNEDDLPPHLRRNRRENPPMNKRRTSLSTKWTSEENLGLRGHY

[5] = inhibitors of SNCA 5'UTR-driven reporter translation, confirmation, H4 neuroglioma cells, luminescence (AID 1988); assay type: functional, cell-based
[6] = biological target: T3, Endoribonuclease toxin MazF (Escherichia coli K-12, UniProt P0AE70); test: MazF toxin RNase activators, dose response, biochemical, fluorescence, single-stranded RNA substrate, uHTS hits (AID 588481); assay type: functional
T3 sequence (P0AE70 whole entry): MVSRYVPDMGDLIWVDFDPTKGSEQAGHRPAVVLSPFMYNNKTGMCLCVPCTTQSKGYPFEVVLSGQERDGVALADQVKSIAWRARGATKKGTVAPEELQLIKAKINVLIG

[7] = biological target: T3, Endoribonuclease toxin MazF; test: fluorescent RNA oligo signal without MazF, dose response, counter-screen for MazEF activator project, biochemical, fluorescence, single-stranded RNase substrate (AID 588502); assay type: functional
HEK293 = test: cells; assay type: functional, cell-based; settings: Homo sapiens
[8] = biological target: T4, Nuclear receptor subfamily 0 group B member 1 (Homo sapiens, UniProt P51843); test: Luminescence-based cell-based high throughput dose response assay for inhibitors of the orphan nuclear receptor subfamily 0, group B, member 1 (DAX1; NR0B1). [Related pubchem assays (depositor defined):AID504766, AID504790]; assay type: functional
T4 sequence (P51843 whole entry): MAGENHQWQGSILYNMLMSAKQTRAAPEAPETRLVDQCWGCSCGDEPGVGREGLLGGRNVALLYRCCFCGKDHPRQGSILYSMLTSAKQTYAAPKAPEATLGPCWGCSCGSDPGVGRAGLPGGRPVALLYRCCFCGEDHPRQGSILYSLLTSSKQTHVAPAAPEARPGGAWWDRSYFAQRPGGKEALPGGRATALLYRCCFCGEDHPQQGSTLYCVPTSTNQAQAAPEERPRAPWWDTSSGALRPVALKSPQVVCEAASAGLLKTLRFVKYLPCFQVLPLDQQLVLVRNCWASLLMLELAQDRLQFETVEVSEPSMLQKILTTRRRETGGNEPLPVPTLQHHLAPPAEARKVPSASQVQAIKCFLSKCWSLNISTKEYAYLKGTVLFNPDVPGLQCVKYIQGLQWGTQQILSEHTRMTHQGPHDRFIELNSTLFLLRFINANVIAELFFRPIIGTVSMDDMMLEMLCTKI

SUMO E1/E2 = SUMO E1/E2 (Homo sapiens, UniProt P63279+Q9UBE0+Q9UBT2); test: SAR analysis of SUMOylation using HTRF in an in-Vitro dose response assay. [Related pubchem assays (depositor defined):AID2006, AID2011, AID2018, AID2069, AID2658]; assay type: functional
cells = assay type: functional
[9] = biological target: T5, Replicative DNA helicase DnaB (Mycobacterium tuberculosis, UniProt P9WMR3); test: DnaB intein splicing inhibitors, dose response, biochemical, cell-free fluorescence (AID 449749); assay type: functional
T5 sequence (P9WMR3 whole entry): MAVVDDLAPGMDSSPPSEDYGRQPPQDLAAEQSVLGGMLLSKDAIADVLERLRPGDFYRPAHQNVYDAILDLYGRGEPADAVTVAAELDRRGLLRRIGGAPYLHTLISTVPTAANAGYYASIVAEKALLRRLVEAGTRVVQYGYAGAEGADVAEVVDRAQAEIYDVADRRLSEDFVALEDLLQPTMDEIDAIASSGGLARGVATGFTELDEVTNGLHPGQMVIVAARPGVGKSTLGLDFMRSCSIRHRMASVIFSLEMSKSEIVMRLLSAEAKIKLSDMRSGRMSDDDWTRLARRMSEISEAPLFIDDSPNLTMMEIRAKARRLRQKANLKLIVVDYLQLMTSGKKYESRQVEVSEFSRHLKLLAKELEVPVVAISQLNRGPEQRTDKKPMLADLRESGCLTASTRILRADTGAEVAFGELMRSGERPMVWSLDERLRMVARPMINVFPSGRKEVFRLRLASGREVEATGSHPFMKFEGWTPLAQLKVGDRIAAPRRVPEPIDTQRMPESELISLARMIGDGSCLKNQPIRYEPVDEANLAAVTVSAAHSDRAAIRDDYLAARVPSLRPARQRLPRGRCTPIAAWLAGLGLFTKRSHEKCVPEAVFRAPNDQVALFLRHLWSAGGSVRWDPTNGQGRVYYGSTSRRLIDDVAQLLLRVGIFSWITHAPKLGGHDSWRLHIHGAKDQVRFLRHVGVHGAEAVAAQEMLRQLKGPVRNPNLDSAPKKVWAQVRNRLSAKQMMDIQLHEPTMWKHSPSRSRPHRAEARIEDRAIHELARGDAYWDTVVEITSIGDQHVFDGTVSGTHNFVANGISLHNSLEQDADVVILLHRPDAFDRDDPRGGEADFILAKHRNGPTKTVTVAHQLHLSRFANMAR

Protein RecA = biological target: T6, Protein RecA (Mycobacterium tuberculosis, UniProt P9WHJ3); test: Fluorescence Cell-Free Homogeneous Dose Retest to Identify Inhibitors of RecA-Intein Splicing Activity. [Related pubchem assays (depositor defined):AID2097, AID2223, AID489010, AID492950]; assay type: functional
T6 sequence (P9WHJ3 whole entry): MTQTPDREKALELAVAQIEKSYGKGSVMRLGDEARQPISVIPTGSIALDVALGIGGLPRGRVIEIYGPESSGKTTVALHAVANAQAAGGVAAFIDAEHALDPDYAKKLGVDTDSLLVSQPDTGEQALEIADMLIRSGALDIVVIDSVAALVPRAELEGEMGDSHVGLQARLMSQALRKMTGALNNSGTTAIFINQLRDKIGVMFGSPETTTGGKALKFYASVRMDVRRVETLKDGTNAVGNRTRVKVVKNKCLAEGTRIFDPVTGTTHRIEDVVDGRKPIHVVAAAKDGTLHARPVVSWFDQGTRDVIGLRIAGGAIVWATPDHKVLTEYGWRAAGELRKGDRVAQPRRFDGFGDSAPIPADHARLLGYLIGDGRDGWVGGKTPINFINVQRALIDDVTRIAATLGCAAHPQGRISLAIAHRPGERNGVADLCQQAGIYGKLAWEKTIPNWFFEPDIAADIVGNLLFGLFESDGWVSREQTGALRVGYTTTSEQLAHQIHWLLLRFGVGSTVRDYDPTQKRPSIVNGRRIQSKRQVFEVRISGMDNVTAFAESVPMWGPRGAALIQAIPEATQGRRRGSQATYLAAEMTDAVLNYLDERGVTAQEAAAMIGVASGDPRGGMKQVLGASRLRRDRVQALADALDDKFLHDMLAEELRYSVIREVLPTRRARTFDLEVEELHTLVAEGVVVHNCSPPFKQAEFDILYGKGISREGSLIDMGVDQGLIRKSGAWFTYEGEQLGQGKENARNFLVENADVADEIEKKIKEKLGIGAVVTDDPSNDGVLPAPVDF

Genome polyprotein = Genome polyprotein (dengue virus type 2, UniProt P29990); test: Dengue-2 NS5 methyltransferase inhibitors, primary screen, biochemical, confirmation dose response (AID 588689); assay type: functional
[10] = biological target: T7, Sentrin-specific protease 8 (Homo sapiens, UniProt Q96LD8); assay type: functional
T7 sequence (Q96LD8 whole entry): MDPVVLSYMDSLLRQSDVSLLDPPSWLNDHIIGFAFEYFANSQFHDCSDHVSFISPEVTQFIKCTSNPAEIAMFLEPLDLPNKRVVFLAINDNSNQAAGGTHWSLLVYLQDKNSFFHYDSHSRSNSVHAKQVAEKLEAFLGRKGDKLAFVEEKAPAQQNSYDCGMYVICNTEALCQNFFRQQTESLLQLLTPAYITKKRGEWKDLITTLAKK

[11] = biological target: T7, Sentrin-specific protease 8; assay type: functional; remark: listed apart in the source
Cytochrome P450 2C19 = Cytochrome P450 2C19 (Homo sapiens, UniProt P33261); test: Cytochrome panel assay with activity outcomes. Panel member name: p450-cyp2c19 Compounds with AC50 equal or less than 10 uM are considered active; assay type: functional; settings: read-out: AC50
Cytochrome P450 2C9 [12] = biological target: T8, Cytochrome P450 2C9 (Homo sapiens, UniProt P11712)
[13] = system: Streptococcus sp. 'group A'; test: growth inhibition of control SK(-) GAS strain, dose response, counter-screen for streptokinase expression inhibitor project, luminescence, kanamycin, BacTiterGlo, confirmation (AID 1900); assay type: functional, organism-based
Streptococcus = test: Group A Streptococcus viability loss, dose response, counter-screen for streptokinase expression inhibitor project, luminescence, BacTiterGlo (AID 1915); assay type: functional, organism-based;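 further: potency for reduction of bacterial viability or growth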
[14] = biological target: FAD-linked sulfhydryl oxidase ALR (Homo sapiens, UniProt P55789); test: inhibitors of human ALR sulfhydryl oxidase, dose response, biochemical, H2O2 detection, luminescence, cherry-pick (AID 493248)
[15] = biological target: Dual specificity protein kinase CLK1 (Homo sapiens, UniProt P49759); test: CLK1 kinase inhibitors, off-target check, dose response, selectivity assay for Dyrk1A inhibitor project, biochemical, cherry-picked samples (AID 588811)
[16] = biological target: Dual specificity tyrosine-phosphorylation-regulated kinase 1A (Rattus norvegicus, UniProt Q63470); assay type: biochemical, Homo sapiens
Cytochrome P450 2C9 [17] = biological target: T8, Cytochrome P450 2C9; remark: listed apart in the source

Cytochrome P450 3A4, sequence (P08684 whole entry): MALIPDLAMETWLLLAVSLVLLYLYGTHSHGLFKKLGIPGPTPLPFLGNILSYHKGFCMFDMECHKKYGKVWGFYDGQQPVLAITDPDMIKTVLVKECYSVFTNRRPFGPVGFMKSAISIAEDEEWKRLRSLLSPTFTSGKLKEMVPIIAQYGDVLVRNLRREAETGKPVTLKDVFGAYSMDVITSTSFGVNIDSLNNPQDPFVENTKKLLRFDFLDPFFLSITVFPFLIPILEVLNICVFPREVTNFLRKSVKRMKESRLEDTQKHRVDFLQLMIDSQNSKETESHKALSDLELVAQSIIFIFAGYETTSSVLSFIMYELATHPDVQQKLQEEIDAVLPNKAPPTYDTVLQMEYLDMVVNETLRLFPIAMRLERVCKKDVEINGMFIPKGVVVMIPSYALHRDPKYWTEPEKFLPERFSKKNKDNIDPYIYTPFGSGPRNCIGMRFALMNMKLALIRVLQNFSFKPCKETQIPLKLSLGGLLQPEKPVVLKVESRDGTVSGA
T8 sequence (P11712 whole entry): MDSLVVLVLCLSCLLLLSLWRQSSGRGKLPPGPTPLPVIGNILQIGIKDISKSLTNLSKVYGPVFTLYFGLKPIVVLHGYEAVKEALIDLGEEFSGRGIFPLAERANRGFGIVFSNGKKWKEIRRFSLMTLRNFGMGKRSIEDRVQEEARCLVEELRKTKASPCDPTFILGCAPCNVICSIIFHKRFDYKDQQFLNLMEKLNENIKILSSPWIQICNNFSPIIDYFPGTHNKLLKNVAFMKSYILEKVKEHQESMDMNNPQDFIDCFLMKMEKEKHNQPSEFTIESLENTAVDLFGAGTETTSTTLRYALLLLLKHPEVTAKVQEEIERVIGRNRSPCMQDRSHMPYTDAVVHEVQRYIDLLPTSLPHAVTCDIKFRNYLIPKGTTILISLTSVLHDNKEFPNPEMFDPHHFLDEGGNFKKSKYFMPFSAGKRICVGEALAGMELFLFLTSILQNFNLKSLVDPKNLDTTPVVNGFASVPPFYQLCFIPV
SUMO E1/E2, sequence (Q9UBE0 whole entry): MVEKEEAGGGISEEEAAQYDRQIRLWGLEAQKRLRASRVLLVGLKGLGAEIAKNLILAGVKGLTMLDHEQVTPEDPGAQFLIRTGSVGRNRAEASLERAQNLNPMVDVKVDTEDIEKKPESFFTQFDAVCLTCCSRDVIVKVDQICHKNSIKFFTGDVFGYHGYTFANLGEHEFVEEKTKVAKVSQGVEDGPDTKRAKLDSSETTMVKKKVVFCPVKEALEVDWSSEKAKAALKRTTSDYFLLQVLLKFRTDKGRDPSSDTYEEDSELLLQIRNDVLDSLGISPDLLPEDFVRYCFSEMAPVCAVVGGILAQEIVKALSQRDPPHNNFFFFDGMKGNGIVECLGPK
SUMO E1/E2, sequence (Q9UBT2 whole entry): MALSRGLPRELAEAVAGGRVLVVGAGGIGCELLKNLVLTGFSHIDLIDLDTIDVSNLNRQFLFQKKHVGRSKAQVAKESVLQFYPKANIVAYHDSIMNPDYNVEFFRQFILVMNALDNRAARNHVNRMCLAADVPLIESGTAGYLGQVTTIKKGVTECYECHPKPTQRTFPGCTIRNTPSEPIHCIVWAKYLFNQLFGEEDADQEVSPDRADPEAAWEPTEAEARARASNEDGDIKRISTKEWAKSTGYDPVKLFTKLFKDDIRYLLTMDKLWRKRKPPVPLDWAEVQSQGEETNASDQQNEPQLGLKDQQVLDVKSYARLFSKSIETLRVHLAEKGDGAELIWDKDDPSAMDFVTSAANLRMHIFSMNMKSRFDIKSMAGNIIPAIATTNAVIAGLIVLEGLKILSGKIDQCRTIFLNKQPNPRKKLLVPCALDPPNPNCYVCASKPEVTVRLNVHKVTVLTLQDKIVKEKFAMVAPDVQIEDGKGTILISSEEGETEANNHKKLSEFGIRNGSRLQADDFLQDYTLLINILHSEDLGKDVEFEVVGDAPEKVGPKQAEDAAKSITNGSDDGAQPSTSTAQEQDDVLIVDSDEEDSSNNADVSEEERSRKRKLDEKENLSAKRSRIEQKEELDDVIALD
SUMO E1/E2, sequence (P63279 whole entry): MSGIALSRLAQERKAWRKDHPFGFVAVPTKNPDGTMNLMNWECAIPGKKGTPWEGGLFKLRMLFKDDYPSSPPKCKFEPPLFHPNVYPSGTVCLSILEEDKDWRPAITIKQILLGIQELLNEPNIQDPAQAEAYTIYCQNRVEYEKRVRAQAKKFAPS
Cytochrome P450 2C19, sequence (P33261 whole entry): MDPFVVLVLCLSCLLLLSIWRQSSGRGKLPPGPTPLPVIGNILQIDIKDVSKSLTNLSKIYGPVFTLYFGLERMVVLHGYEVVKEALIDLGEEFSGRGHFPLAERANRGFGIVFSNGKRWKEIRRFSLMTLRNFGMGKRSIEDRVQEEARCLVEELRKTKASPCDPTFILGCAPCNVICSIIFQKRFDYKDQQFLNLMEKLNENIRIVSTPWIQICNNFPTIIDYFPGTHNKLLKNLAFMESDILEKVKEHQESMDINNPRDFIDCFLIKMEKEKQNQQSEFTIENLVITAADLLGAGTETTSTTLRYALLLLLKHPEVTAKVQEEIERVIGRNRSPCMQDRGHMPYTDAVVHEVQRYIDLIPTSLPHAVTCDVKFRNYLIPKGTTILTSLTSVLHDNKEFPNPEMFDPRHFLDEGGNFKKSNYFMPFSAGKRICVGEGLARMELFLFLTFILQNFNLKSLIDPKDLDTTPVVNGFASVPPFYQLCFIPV
FAD-linked sulfhydryl oxidase ALR, sequence (P55789 whole entry): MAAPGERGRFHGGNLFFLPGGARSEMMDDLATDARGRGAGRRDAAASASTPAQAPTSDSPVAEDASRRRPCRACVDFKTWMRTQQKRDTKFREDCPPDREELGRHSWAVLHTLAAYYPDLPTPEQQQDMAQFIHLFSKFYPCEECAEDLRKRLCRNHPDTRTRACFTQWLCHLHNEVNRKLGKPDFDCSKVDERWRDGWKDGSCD
Genome polyprotein, sequence (P29990 2492-3391 limits assumed): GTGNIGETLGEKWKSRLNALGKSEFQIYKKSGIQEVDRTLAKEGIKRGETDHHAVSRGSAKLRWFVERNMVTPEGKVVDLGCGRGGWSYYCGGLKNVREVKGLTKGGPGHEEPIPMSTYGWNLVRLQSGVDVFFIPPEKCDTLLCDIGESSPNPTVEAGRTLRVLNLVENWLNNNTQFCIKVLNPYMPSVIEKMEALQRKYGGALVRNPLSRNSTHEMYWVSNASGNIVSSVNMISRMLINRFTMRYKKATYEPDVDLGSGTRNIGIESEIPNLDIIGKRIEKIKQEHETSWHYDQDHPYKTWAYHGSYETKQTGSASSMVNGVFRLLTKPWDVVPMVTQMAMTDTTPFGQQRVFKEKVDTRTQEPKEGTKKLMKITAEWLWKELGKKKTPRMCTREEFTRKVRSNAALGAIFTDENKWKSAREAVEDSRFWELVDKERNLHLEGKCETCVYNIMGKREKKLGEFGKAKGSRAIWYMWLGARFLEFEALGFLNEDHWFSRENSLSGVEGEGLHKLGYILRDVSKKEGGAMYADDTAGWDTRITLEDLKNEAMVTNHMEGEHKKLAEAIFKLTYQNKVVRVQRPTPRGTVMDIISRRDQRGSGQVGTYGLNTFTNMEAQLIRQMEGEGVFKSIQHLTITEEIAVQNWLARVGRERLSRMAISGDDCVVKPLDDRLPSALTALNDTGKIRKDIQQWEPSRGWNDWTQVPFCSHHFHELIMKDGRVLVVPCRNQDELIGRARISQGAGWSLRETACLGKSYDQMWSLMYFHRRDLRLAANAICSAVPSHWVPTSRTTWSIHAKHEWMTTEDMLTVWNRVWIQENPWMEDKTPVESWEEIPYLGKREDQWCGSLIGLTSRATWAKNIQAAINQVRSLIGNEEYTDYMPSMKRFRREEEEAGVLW
Dual specificity protein kinase CLK1, sequence (P49759 whole entry): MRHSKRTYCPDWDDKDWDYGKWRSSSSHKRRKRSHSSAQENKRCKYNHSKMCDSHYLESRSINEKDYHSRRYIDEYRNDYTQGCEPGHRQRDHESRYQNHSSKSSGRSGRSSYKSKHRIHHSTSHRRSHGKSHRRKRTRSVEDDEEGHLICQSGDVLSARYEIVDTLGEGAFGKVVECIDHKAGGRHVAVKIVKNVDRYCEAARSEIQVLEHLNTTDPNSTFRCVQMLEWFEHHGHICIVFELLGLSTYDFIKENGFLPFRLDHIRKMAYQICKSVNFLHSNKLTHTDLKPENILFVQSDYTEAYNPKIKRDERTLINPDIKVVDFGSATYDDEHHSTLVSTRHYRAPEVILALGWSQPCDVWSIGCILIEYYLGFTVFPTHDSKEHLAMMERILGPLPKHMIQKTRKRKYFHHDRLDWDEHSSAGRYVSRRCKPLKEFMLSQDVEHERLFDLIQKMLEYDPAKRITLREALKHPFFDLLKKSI

Compound: CCOC(=O)CN1C(=O)Nc2ccc(Br)cc2C1c1ccccc1 (centres undefined)
- AC50 (Cytochrome P450 3A4): inconclusive

Compound: Cc1c(N/C=C2/C(=O)N(C)C(=O)c3ccccc32)c(=O)n(-c2ccccc2)n1C
- EC50 [1]: > 120 µM (not active)
- EC50 [2]: > 300 µM (not active)
- EC50 [3]: > 120 µM (not active)
- EC50 [4]: > 300 µM (inconclusive)
- EC50 [5]: > 120 µM (not active)
- EC50 [6]: > 99 µM (inactive)
- EC50 [7]: 56.4 µM (inactive)

Compound: COc1ccc(C(=O)Nc2nc(C)c(C(C)=O)s2)cc1S(=O)(=O)N1CCOCC1
- EC50 [6]: > 99 µM (inactive)
- EC50 [7]: > 99 µM (inactive)

Compound: COc1ccc(-c2noc(-c3ccoc3C)n2)cc1
- IC50 (HEK293): > 67.6 µM (inactive)
- IC50 [8]: > 67.6 µM (inactive)

Compound: Cc1n[nH]c(O)c1C(c1ccc(-c2ccc(F)cc2)o1)c1c(C)n[nH]c1O
- IC50 (SUMO E1/E2): > 100 µM (inactive)
- IC50 (cells): 41.6 µM (active)
- AC50 [9]: 321 nM (active)
- EC50 (Protein RecA): 297 nM (active)
- IC50 (Genome polyprotein): 58.1 µM (active)
- IC50 [10]: 14 µM (active)
- IC50 [11]: 12.3 µM (active)

Compound: Cn1cccc1/C=C1\SC(=O)N(c2ccc(O)cc2)C1=O
- EC50 [6]: > 99 µM (inactive)
- EC50 [7]: 29.2 µM (inactive)

Compound: CC(=O)OCc1nc2ccccc2s1
- AC50 (Cytochrome P450 2C19): 25.1 µM (inconclusive)
- AC50 (Cytochrome P450 3A4): inconclusive
- AC50 (Cytochrome P450 2C9 [12]): inconclusive

Compound: CCn1c(=O)c(C(=O)NNS(=O)(=O)c2ccc(Br)cc2)c(O)c2ccccc21
- IC50 (HEK293): > 67.6 µM (inactive)
- IC50 [8]: > 67.6 µM (inactive)

Compound: Cc1noc(NS(=O)(=O)c2ccc(NC(=O)c3oc4ccc(Cl)cc4c3C)cc2)c1C
- EC50 [13]: 8.14 µM (active)
- EC50 (Streptococcus): 36.9 µM (active)
- AC50 [14]: 626 nM (active)
- AC50 [15]: 10 µM (active)
- AC50 [16]: 6.88 µM (active)

Compound: O=C(c1ccco1)N1CCC2(CC1)CCN(C(c1ccccc1)c1ccccc1)CC2
- AC50 (Cytochrome P450 2C9 [17]): 39.8 µM (inconclusive)
- AC50 (Cytochrome P450 3A4): inconclusive

Compound: Cc1cccc(-c2nc(Nc3ccc(O)cc3)c3ccccc3n2)c1
- AC50 [16]: 1.1 µM (active)
